Patent US12358902B2, “5-(2,5-bis(4-chloro-2-isopropylphenyl)thiophen-3-yl)-1H-tetrazole for the topical treatment of bacterial infections” (DENOVAMED INC., priority 2017, dated 2025)

How the values were obtained:
[1] = test system: fatty acid synthase; assay: in vitro enzyme assay, selectivity; format: biochemical; details: ACP utilizing bacterial enzyme
[2] = test system: USA300 MRSA strain; assay: bactericidal activity; format: cell-based
[3] = test system: Clostridium spp.; assay: activity against Clostridium spp.; format: cell-based
[4] = test system: USA100 MRSA strain; assay: bactericidal activity; format: cell-based
[5] = test system: AcpS; assay: AcpS enzyme activity assay; format: biochemical, S. aureus and E. coli; details: [3H]-labeled holo-ACP formation
Description: The acpS gene was amplified from S. aureus and E. coli genomic DNA and inserted into a pET23b vector using standard recombinant DNA methodology such that the protein product would result in addition of a C-terminal 6×-His tag in frame with the AcpS open reading frames. […] Recombinant His-Tagged AcpS expression was induced by IPTG addition and overnight culture. Cell lysate was obtained by sequential aspiration through 16, 18 and 21 G needles in a buffer of 50 mM Tris-HCl (pH 8.5), 10 mM MgCl2, 2 mM DTT, 5% glycerol, and further adjusted to pH 8.1 with MES. […] In a typical AcpS enzyme activity assay, 57 μM [^3H]-labeled acyl-CoA, 2 μg apo-ACP, 10 mM MgCl2, 5 mM DTT, 50 mM Na phosphate (pH 7.0), and AcpS in a final volume of 10 μL were incubated at room temperature in a 1.5 mL microcentrifuge tube. At 5, 10, 15, and 20 minutes 2 μL of reaction were added to 750 μL 10% TCA on ice. Bovine serum albumin (BSA; 20 μl of a 25 mg/ml solution) was then added to facilitate precipitation of radiolabeled protein. The samples were centrifuged at 12 000 rcf for 5 min. […] 2 mL of scintillation fluid was added, and the amount of [^3H]-labeled holo-ACP formed was quantified by liquid scintillation counting. Each data point (remaining AcpS enzyme activity) was expressed as a percentage of vehicle control, with the median value of four time points presented.

[6] = test system: MRSA (ATCC #33591); assay: rabbit ischemic wound model; format: in vivo, New Zealand white rabbits
Description: 5-(2,5-bis(4-chloro-2-isopropylphenyl)thiophen-3-yl)-1H-tetrazole was tested for its efficacy against infection in the rabbit ischemic wound model, the gold standard animal model mimicking human DUI. In this model, the ear is made ischemic by division of central and rostral nutrient arteries of New Zealand white rabbits. New Zealand White rabbits were employed for this study and their husbandry and experimental manipulation adhered to standard Guides for the Care and Use of Laboratory Animals (2001). An incision was made to the level of bare cartilage at the base of the ear and followed by injection intradermally with epinephrine to obtain vasoconstriction and aid with skin detachment. Skin is separated from the underlying perichondrium and removed with a 6.0 mm aortic biopsy punch. Food and water were given ad libidum and animals were acclimatized for 7 days with photoperiods of alternating 12 h light and dark provided, along with analgesic (BUPRENEX™ (buprenorphine) 0.02 mg/kg sc) and anaesthesia (isoflurane (0.5-5% with oxygen carrier 0.5-2 L/min) during procedures.
An ischemia wound healing model was conducted surgically. Each wound was inoculated with 50 μl of 2×10^7 CFU/ml MRSA (ATCC #33591) and dressed. After one day, wounds were treated with either 50 μl control cream containing vehicle (N=4), 50 μl containing mupirocin (N=4), or 50 μl cream containing 5-(2,5-bis(4-chloro-2-isopropylphenyl)thiophen-3-yl)-1H-tetrazole (N=8) daily. Clinical observations were performed on days 1, 3, 5, 7, 10 and 14. Wounds were assessed and observations recorded using the Draize scoring system. Digital photographs of each wound were obtained and documented.
On day 14 post-wounding, under anesthesia, the animals were euthanized with an intravenous injection of BEUTHANASIA-D™ ([…] and phenytoin sodium) at a dosage of 150 mg/kg of body weight. Specimens including the entire wound, along with approximately 2-3 mm of the normal unwounded skin margins were harvested. Each ear wound specimen was sectioned into halves. For one half of the wound, the wound was placed into a container with 10% neutral buffered formalin and processed for routine histological evaluation. Wound organization was scored for four parameters on a scale of 0-4 at the wound site for inflammation, granulation, angiogenesis, and epithelialization. Wounds were characterized in a blinded manner by a board certified member of the College of American Pathologists. The other half of the wound was weighed (mg) in a sterile Petri dish, then placed in a sterile disposable tissue grinder and homogenized for quantitative microbiology. The tube containing the ground tissue sample was filled with 5 ml 0.85% sterile saline. Five 1:10 serial dilutions were then prepared with 0.5 ml aliquots and 4.5 ml of sterile saline per aliquot. Subsequently, 0.1 ml of the homogenate and each dilution was drop plated on trypticase soy agar and placed in an incubator at 37° C. The number of viable organisms per wound was recorded as cfu/gram of tissue.

[7] = topical daily, day 14, compared to the control

For `CC(C)c1cc(Cl)ccc1-c1cc(-c2nnn[nH]2)c(-c2ccc(Cl)cc2C(C)C)s1` [Test Article, 5-(2,5-bis(4-chloro-2-isopropylphenyl)thiophen-3-yl)-1H-tetrazole], the “inhibition of fatty acid synthase” value [1] was “did not inhibit”, the bactericidal activity [2] was “rapidly bactericidal” and the activity [3] was “retained activity”. The bactericidal activity [4] was “rapidly bactericidal”, the AcpS inhibition [5] was “inhibited” and the “percent wound contraction over time (FIG. 1)” value ([6]; topical daily to day 14, p<0.001 vs control, p<0.03 vs mupirocin) was “better than the mupirocin treated group”. The “effect on erythema and edema” value ([6]; topical daily, Draize scoring) was “positive effect”, the CFU drop [6, 7] was 4 log and the “reduction in bacterial survival” value [6, 7] was greater than 99%. For the same compound, the “wound healing and epithelialization” value ([6]; topical daily, versus mupirocin group) was “significantly better than the mupirocin group”.
